This is an account of results in ChEMBL document CHEMBL5729301, “ASK1 inhibitor compounds and uses thereof” (2022).

The target in the assay is T1, Mitogen-activated protein kinase kinase kinase 5 (Homo sapiens, UniProt Q99683).
T1 sequence (Q99683 whole entry): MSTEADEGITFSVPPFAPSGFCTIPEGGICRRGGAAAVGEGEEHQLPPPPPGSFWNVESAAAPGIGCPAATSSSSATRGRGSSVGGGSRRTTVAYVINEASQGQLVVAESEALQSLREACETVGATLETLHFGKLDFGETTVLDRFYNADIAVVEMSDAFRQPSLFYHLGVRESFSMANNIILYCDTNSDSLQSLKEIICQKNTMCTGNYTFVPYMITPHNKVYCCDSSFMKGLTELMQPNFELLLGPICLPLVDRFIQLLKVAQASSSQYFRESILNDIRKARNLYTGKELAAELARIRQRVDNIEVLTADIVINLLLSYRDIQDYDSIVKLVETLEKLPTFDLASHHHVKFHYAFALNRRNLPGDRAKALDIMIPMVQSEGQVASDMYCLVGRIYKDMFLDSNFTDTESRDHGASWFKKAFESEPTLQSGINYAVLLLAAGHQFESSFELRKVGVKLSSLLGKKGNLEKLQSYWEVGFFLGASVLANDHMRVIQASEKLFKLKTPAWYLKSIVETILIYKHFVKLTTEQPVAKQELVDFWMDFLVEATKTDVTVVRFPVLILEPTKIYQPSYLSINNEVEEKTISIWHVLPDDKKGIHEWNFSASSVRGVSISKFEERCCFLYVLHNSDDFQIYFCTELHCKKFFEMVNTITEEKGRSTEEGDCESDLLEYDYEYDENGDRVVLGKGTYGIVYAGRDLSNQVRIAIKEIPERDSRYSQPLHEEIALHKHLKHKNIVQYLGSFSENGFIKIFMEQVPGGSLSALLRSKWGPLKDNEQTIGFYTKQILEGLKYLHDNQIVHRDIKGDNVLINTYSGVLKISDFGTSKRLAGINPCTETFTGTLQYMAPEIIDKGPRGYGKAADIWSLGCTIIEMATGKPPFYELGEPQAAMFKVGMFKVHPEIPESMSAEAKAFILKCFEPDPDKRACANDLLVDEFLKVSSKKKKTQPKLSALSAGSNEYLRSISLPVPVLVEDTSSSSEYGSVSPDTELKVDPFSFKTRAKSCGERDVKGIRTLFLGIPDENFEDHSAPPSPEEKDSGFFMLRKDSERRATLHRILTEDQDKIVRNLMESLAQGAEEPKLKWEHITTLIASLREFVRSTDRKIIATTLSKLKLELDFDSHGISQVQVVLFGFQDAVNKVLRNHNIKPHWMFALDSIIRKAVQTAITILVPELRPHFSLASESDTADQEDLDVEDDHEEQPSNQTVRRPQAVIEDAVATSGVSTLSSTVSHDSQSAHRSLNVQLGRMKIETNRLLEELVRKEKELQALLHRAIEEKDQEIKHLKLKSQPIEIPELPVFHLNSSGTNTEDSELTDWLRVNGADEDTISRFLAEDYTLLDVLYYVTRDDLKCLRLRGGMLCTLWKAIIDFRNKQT
The assay can be described thus: Kinase Assay: The ASK1 enzymatic assay was run following Promega ASK1 Kinase Enzyme System (Cat #V3881). The kit provides the protocol, enzymes and all reagents necessary to run an assay.The compounds, enzyme, substrate and ATP were diluted in provided assay buffer. The final concentration of the enzyme was 50 nM, substrate (Myelin basic protein) 1 μg/mL and ATP 10 μM. The compound and the enzyme were pre-incubated in a 384-well white solid bottom plate (Greiner, Cat #784075) for 10 minutes. After incubation, the substrate and ATP were added and incubated for an additional 60 minutes. After 60 minutes, ADP-Glo™ was added and the plate was incubated for another 40 minutes. After 40 minutes, Kinase Detection Reagent was added and the plate was incubated for 45 minutes. After 45 minutes, the plate was read on a Perkin Elmer EnVision using luminescence read (0.5 seconds/well). (In general: ADP-Glo first removes unused ATP, then detects ADP through luciferase.)

Usually IC50 stands for the concentration needed to halve the response being measured. Low values mean higher potency, high ones lower potency. `CC(=O)Nc1cccc(-c2cc3c(s2)C(=O)N(c2cccc(-c4nncn4C4CC4)n2)C3)c1` showed a half-maximal inhibitory concentration (IC50) of less than 1 µM.
